Results reported in ChEMBL document CHEMBL1141731, “Bioactive pyridoacridine alkaloids from the micronesian sponge Oceanapia sp” (J Nat Prod, 1998).
Values after ≈ are worked out from the molar mass of the structure shown. Active and inactive are the calls of the source. No cut-off for these calls is given here.

Tests used:
Escherichia coli = experiment: Antimicrobial activities activity against Escherichia coli ATCC 25922 at 100ug/disk after 24 hrs by agar plate diffusion assay; format: functional, organism-based
Bacillus subtilis = experiment: Antimicrobial activities activity against Bacillus subtilis 168 at 100ug/disk after 24 hrs by agar plate diffusion assay; format: functional, organism-based; conditions: subsp. subtilis str. 168
Rattus norvegicus [1] = species on record: Rattus norvegicus; experiment: Displacement of [3H]diazepam from benzodiazepine binding site of GABAA receptor in rat brain cortical membrane at 25 uM; format: cell membranes
Cladosporium cucumerinum = experiment: Fungicidal activity against Cladosporium cucumerinum; format: functional, organism-based
Adenosine receptor A1 = target: T1, Adenosine receptor A1 (Rattus norvegicus, UniProt P25099); experiment: Displacement of [3H]CHA from adenosine A1 receptor in rat brain cortical membrane; format: cell membranes
T1 sequence (P25099 whole entry): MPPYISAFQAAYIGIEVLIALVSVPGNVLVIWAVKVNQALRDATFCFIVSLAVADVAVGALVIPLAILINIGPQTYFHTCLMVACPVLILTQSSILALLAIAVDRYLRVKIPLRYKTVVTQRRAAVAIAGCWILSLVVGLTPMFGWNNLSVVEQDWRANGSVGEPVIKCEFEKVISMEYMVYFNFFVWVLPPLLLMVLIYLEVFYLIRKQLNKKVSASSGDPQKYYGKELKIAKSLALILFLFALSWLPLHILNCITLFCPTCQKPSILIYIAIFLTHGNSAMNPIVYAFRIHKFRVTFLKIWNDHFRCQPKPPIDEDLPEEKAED

[2] = Toxicity against Artemia salina after 24 hrs; format: organism-based; conditions: in vivo
MONO-MAC-6 = experiment: Cytotoxicity against human MONO-MAC-6 cells assessed as incorporation of [3H]thymidine incorporation; format: functional, cell-based
[3] = target: T2, Adenosine receptor A1 (Rattus norvegicus) (UniProt P25099); experiment: Displacement of [3H]CHA from adenosine A1 receptor in rat brain cortical membrane at 25 uM; format: cell membranes
T2 sequence (whole entry): T1 sequence (P25099 whole entry)

Adenosine receptor A2a = Adenosine receptor A2a (Rattus norvegicus, UniProt P30543); experiment: Displacement of [3H]CGS21680 from adenosine A2A receptor in rat brain striatal membrane; format: cell membranes
Rattus norvegicus [4] = species on record: Rattus norvegicus; experiment: (§1) Displacement of [3H]diazepam from benzodiazepine binding site of GABAA receptor in rat brain cortical membrane; format: cell membranes
[5] = target: Adenosine receptor A2a (Rattus norvegicus) (UniProt P30543); experiment: Displacement of [3H]CGS21680 from adenosine A2A receptor in rat brain striatal membrane at 25 uM; format: cell membranes
HeLa = experiment: Cytotoxicity against human HeLa cells assessed as incorporation of [3H]thymidine incorporation; format: functional, cell-based
Spodoptera littoralis = experiment: Insecticidal activity against Spodoptera littoralis larvae with artificial diet assessed survival after 6 days; format: functional; conditions: 144 h
[6] = as §1; format: cell membranes
Artemia salina = experiment: Toxicity against Artemia salina at upto 100 ug/mL after 24 hrs; format: organism-based; conditions: in vivo
[7] = target: Adenosine receptor A2a (Rattus norvegicus) (UniProt P30543); experiment: Displacement of [3H]CGS21680 from adenosine A2A receptor in rat brain striatal membrane at 100 uM; format: cell membranes
[8] = target: T2, Adenosine receptor A1 (Rattus norvegicus); experiment: Displacement of [3H]CHA from adenosine A1 receptor in rat brain cortical membrane at 100 uM; format: cell membranes

Chain of Adenosine receptor A2a (Rattus norvegicus) (P30543 whole entry): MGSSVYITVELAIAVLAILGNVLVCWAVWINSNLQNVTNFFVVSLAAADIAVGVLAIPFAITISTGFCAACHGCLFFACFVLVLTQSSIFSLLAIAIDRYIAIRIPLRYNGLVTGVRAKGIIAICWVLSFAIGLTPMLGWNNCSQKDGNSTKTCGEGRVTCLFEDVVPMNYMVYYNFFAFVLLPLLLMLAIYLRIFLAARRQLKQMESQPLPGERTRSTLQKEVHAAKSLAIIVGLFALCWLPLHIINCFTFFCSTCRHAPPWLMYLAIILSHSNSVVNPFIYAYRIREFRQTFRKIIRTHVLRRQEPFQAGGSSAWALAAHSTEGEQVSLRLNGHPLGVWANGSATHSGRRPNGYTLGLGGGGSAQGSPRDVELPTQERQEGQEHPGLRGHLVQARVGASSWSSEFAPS
Chain of Adenosine receptor A2a (P30543 whole entry): as above

Structure (SMILES)	Activity (Escherichia coli)	Activity (Bacillus subtilis)	Activity (Rattus norvegicus [1]) [%]	Activity (Cladosporium cucumerinum)	Ki (Adenosine receptor A1) [µM]	LC50 at 24 h [2] [µg/mL]	IC50 (MONO-MAC-6) [µg/mL]	Activity [3] [%]	Ki (Adenosine receptor A2a) [µM]	Activity (Rattus norvegicus [4])	Activity [5] [%]	IC50 (HeLa) [µg/mL]	LC50 (Spodoptera littoralis) [µg/mL]	Ki [6] [µM]	Activity (Artemia salina)	Activity [7] [%]	Activity [8] [%]	EC50 (Spodoptera littoralis; read-out: ED50 (the source's name)) [µg/mL]
CC(=O)NCCc1c2c3c(ccnc3c3ncsc13)-c1ccccc1N2 [KUANONIAMINE D]	inactive	inactive	32	inactive	2.94	19 (≈ 52.7 µM)	0.8 (≈ 2.22 µM)	68	13.7	Active	56	1.4 (≈ 3.88 µM)	59 (≈ 164 µM)					
Cn1c(=O)c2c(ncn2C)n(C)c1=O [CAFFEINE]														376				
NCCc1c2c3c(ccnc3c3ncsc13)-c1ccccc1N2	inactive	inactive	30	inactive			2 (≈ 6.28 µM)			Active		1.2 (≈ 3.77 µM)			Non-toxic	46	36	141 (≈ 443 µM)
CCC(=O)NCCc1c2c3c(ccnc3c3ncsc13)-c1ccccc1N2 [KUANONIAMINE C]	inactive	inactive	39	inactive		37 (≈ 98.8 µM)	1.2 (≈ 3.2 µM)	34		Active	43	5.1 (≈ 13.6 µM)	156 (≈ 417 µM)					
